Experimental data taken from patent US12599136B2, “Substituted isophthalic acid diamides and their use as herbicides” (Bayer Aktiengesellschaft, priority 2020, dated 2026).

Experiments:
Assay type in all cases: in vivo
[1] = test system: Polygonum convolvulus; experiment: Post-emergence herbicidal action against POLCO; details: 80 g/ha, visual assessment about 3 weeks after treatment
Method: Seeds of monocotyledonous and dicotyledonous weed and crop plants are laid out in sandy loam soil in wood-fiber pots, covered with soil and cultivated in a greenhouse under good growth conditions. 2 to 3 weeks after sowing, the test plants are treated at the one-leaf stage. The compounds of the invention, formulated in the form of wettable powders (WP) or as emulsion concentrates (EC), are then sprayed onto the green parts of the plants in the form of an aqueous suspension or emulsion at a water application rate equivalent to 600 to 800 l/ha, with addition of 0.2% wetting agent. After the test plants have been left to stand in the greenhouse under optimal growth conditions for about 3 weeks, the action of the preparations is assessed visually in comparison to untreated controls (herbicidal action in percent (%): 100% activity=the plants have died, 0% activity=like control plants). […] The tables below illustrate, in an illustrative manner, the post-emergence herbicidal action of the compounds of the invention, the herbicidal activity being stated in percent.

[2] = test system: Alopecurus myosuroides; experiment: Pre-emergence herbicidal action against ALOMY; details: visual score after 3 weeks vs untreated controls
Method in brief: (§1)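 Visual rating at 3 weeks vs untreated pots; 0–100% scale, 100% = plants died. Treatment: aqueous WP/EC spray onto covering soil, 600–800 l/ha, 0.2% wetter, seeds in sandy loam.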

[3] = test system: Amaranthus retroflexus; experiment: Pre-emergence herbicidal action against AMARE; details: visual score after 3 weeks vs untreated controls
Method in brief: as §1

[4] = test system: Cyperus esculentus; experiment: Pre-emergence herbicidal action against CYPES; details: 320 g/ha; visual score after 3 weeks vs untreated controls
Method in brief: as §1

[5] = test system: Veronica persica; experiment: Post-emergence herbicidal action against VERPE; details: visual assessment about 3 weeks after treatment
Method in brief: (§2)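 Greenhouse pot plants in sandy loam were sprayed at the one-leaf stage, 2 to 3 weeks after sowing, with WP or EC formulations as aqueous suspension or emulsion (600 to 800 l/ha water, 0.2% wetting agent). About 3 weeks later, damage was scored visually against untreated controls as % action (100% = dead, 0% = like control).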

[6] = test system: Amaranthus retroflexus; experiment: Post-emergence herbicidal action against AMARE; details: visual assessment about 3 weeks after treatment
Method in brief: as §2

[7] = test system: Viola tricolor; experiment: Post-emergence herbicidal action against VIOTR; details: 80 g/ha
Method in brief: as §2

[8] = test system: Abutilon theophrasti; experiment: Pre-emergence herbicidal action against ABUTH; details: visual score after 3 weeks vs untreated controls
Method in brief: as §1

[9] = test system: Avena fatua; experiment: Pre-emergence herbicidal action against AVEFA; details: 320 g/ha; visual score after 3 weeks vs untreated controls
Method in brief: as §1

[10] = test system: Pharbitis purpurea; experiment: Post-emergence herbicidal action against PHBPU; details: 80 g/ha, visual assessment about 3 weeks after treatment
Method in brief: as §2

[11] = test system: Echinochloa crus-galli; experiment: Post-emergence herbicidal action against ECHCG; details: visual assessment about 3 weeks after treatment
Method in brief: as §2

[12] = test system: Stellaria media; experiment: Post-emergence herbicidal action against STEME; details: visual assessment about 3 weeks after treatment
Method in brief: as §2

[13] = test system: Polygonum convolvulus; experiment: Pre-emergence herbicidal action against POLCO; details: 320 g/ha
Method in brief: as §1

[14] = test system: Viola tricolor; experiment: Pre-emergence herbicidal action against VIOTR
Method in brief: as §1

[15] = test system: Pharbitis purpurea; experiment: Pre-emergence herbicidal action against PHBPU; details: 320 g/ha; visual score after 3 weeks vs untreated controls
Method in brief: as §1

[16] = test system: Stellaria media; experiment: Pre-emergence herbicidal action against STEME
Method in brief: as §1

[17] = test system: Hordeum murinum; experiment: Pre-emergence herbicidal action against HORMU; details: 320 g/ha; visual score after 3 weeks vs untreated controls
Description: Seeds of monocotyledonous and dicotyledonous weed plants and crop plants are laid out in sandy loam soil in wood-fiber pots and covered with soil. The compounds of the invention, formulated in the form of wettable powders (WP) or as emulsion concentrates (EC), are then applied to the surface of the covering soil in the form of an aqueous suspension or emulsion at a water application rate equivalent to 600 to 800 l/ha, with addition of 0.2% wetting agent. After the treatment, the pots are placed in a greenhouse and kept under good growth conditions for the trial plants. The damage to the test plants is scored visually after a test period of 3 weeks by comparison with untreated controls (herbicidal activity in percent (%): 100% activity=the plants have died, 0% activity=like control plants). […] The tables below illustrate, in an illustrative manner, the post-emergence herbicidal action of the compounds of the invention, the herbicidal activity being stated in percent.

[18] = test system: Veronica persica; experiment: Pre-emergence herbicidal action against VERPE; details: 320 g/ha
Method in brief: as §1

[19] = test system: Setaria viridis; experiment: Pre-emergence herbicidal action against SETVI; details: 320 g/ha
Method in brief: as §1

[20] = test system: Matricaria inodora; experiment: Post-emergence herbicidal action against MATIN; details: visual assessment about 3 weeks after treatment
Method in brief: as §2

[21] = test system: Echinochloa crus-galli; experiment: Pre-emergence herbicidal action against ECHCG; details: visual score after 3 weeks vs untreated controls
Method in brief: as §1

[22] = test system: Matricaria inodora; experiment: Pre-emergence herbicidal action against MATIN; details: visual score after 3 weeks vs untreated controls
Method in brief: as §1

[23] = test system: Abutilon theophrasti; experiment: Post-emergence herbicidal action against ABUTH
Method in brief: as §2

Cc1ccccc1N(C)C(=O)c1c(Cl)ccc(C(=O)Nc2nnnn2C)c1Cl [Example 1-399]
90%: Pre-emergence action against AMARE ([3]; 20 g/ha) | Pre-emergence action against CYPES [4] | Post-emergence action against VERPE in % ([5]; 80 g/ha) | Pre-emergence action against AVEFA [9] | Post-emergence action against PHBPU in % [10] | Post-emergence action against STEME in % ([12]; 20 g/ha) | Pre-emergence action against POLCO [13] | Pre-emergence action against PHBPU [15] | Pre-emergence action against STEME ([16]; 20 g/ha) | Pre-emergence action against STEME ([16]; 80 g/ha) | Pre-emergence action against HORMU [17] | Post-emergence action against MATIN in % ([20]; 20 g/ha) | Post-emergence action against MATIN in % ([20]; 80 g/ha) | Pre-emergence action against MATIN ([22]; 80 g/ha)
100%: Post-emergence action against POLCO in % [1] | Pre-emergence action against ALOMY ([2]; 320 g/ha) | Pre-emergence action against AMARE ([3]; 80 g/ha) | Pre-emergence action against AMARE ([3]; 320 g/ha) | Post-emergence action against AMARE in % ([6]; 5 g/ha) | Post-emergence action against AMARE in % ([6]; 20 g/ha) | Post-emergence action against AMARE in % ([6]; 80 g/ha) | Post-emergence action against VIOTR in % [7] | Pre-emergence action against ABUTH ([8]; 80 g/ha) | Pre-emergence action against ABUTH ([8]; Dosage column 320 g/ha (heading prints 3200 g/ha)) | Post-emergence action against ECHCG in % ([11]; 80 g/ha) | Post-emergence action against STEME in % ([12]; 80 g/ha) | Pre-emergence action against VIOTR ([14]; 80 g/ha) | Pre-emergence action against VIOTR ([14]; 320 g/ha) | Pre-emergence action against STEME ([16]; 320 g/ha) | Pre-emergence action against SETVI [19] | Pre-emergence action against ECHCG ([21]; 80 g/ha) | Pre-emergence action against ECHCG ([21]; 320 g/ha) | Pre-emergence action against MATIN ([22]; 320 g/ha) | Post-emergence action against ABUTH ([23]; 20 g/ha) | Post-emergence action against ABUTH ([23]; 80 g/ha)
80%: Pre-emergence action against ALOMY ([2]; 80 g/ha) | Post-emergence action against VERPE in % ([5]; 20 g/ha) | Post-emergence action against ECHCG in % ([11]; 20 g/ha) | Post-emergence action against STEME in % ([12]; 5 g/ha) | Pre-emergence action against VERPE [18] | Post-emergence action against ABUTH ([23]; 5 g/ha)
